Laboratory results published in patent US10766857B2, “Compound having BLT inhibitory activity and composition, for preventing or treating inflammatory diseases, comprising same as active ingredient” (DONGGUK UNIVERSITY INDUSTRY-ACADEMIC COOPERATION FOUNDATION, priority 2015, dated 2020).

Legend:
[1] = biological target: T1, BLT2-expressing cells (CHO-BLT2 cells) (Homo sapiens, UniProt Q9NPC1); test: MTT cell growth of LTB4-stimulated BLT2-expressing cells; format: cell-based; conditions: LTB4 300 nM; for cell growth compared with the control DMSO: pre-treated at 10 μM; for inhibition at 10 µM: read-out: growth inhibitory effect
T1 construct: HA; expressed in transfected cells
T1 sequence (Q9NPC1 with tags, fused parts or gaps): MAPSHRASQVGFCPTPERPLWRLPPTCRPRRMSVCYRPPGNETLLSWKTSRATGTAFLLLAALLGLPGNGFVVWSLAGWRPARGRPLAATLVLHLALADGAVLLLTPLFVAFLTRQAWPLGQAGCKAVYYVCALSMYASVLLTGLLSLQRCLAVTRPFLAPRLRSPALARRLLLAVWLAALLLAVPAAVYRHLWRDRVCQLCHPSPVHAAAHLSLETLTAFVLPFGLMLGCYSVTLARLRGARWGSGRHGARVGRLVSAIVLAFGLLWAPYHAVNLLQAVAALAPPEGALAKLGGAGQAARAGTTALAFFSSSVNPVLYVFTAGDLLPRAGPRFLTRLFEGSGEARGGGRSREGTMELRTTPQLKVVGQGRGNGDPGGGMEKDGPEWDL
Description: Cell viability according to treatment of the compounds prepared in the examples were measured by a 3-(4,5-dimethylthiazol-2-yl)-2,5-diphenyltetrazolium bromide (MTT) method.
More specifically, 1×10^4 each of the BLT2-nonexpressing cells (CHO-pcDNA3.1 cells) and BLT2-expressing cells (CHO-BLT2 cells), which were prepared in Experimental Example 1, were dispensed in a […], and cultured for 24 hours. Afterward, the culture medium was removed, a serum-free RPMI medium was added, and after two hours, the cells were pre-treated with each of the compound prepared in one of the examples (10 μM), 10 μM DMSO (compound solvent) as a control, and 10 μM 1-[5-ethyl-2-hydroxy-4-[[6-methyl-6-(1H-tetrazol-5-yl)heptyl]oxy]phenyl]-ethanone (LY255283; Cayman) as a positive control for 1 hour. Subsequently, after treatment of LTB4 (300 nM), the cells were cultured for 24 hours. 20 μL of an MTT solution (5 mg/mL, Sigma-Aldrich) was added to each well, the cells were cultured in a humid CO2 incubator at 37° C. for 4 hours, a supernatant was removed, and 200 μL of DMSO was added to each well to dissolve insoluble violet formazan crystals. Absorbance was measured using a microplate reader (Molecular Devices, Sunnyvale, Calif.) at 550 nm, and the measurement was repeated three times.

BLT1 = biological target: T2, BLT1 (Homo sapiens, UniProt Q15722); test: LTB4-induced chemotactic motility, Transwell, CHO-BLT1 cells; format: cell-based; conditions: 10 μM pre-treatment, LTB4 10 nM
T2 construct: expressed in transfected cells; host or cells: CHO cells stably expressing BLT1 (CHO-BLT1)
Description: (§1) Chemotactic motility was analyzed using a Transwell chamber including a polycarbonate filter (8-μm pore size, Corning Costar) with a 6.5-mm diameter. Specifically, the lower surface of the filter was coated with 10 μg/mL fibronectin in a serum-free RPMI 1640 medium at 37° C. for 1 hour. The experiment was performed by placing the filter dried and coated with RPMI 1640 media containing various amounts of LTB4 in the lower wells of the Transwell chamber, and loading CHO cells stably expressing BLT1 and BLT2 into the upper wells containing serum-free RPMI 1640 media finally at 2×10^4 cells/100 μL. To evaluate the effect of inhibitors, the cells were pre-treated with each inhibitor for 30 minutes before dispensing. After the cells were cultured at 37° C. in 5% CO2 for 3 hours, the filters were fixed with methanol for 3 minutes, and stained with hematoxylin and eosin for 10 minutes. In the experiment, the cells were BLT2-expressing cells (CHO-BLT2 cells) and BLT1-expressing cells (CHO-BLT1 cells), and LY255283 and U75302 were used as positive controls for each type of the cells, and BLT2 ligand LTB4, (300 nM), BLT1 ligand LTB4 (10 nM), and lysophosphatidic acid (LPA; 100 nM) were used as comparative controls. The chemotactic motility was quantitatively analyzed by counting the cells on the lower side of the filter under an optical microscope (magnification, 200×). For each analysis, 6 fields were subjected to counting, each sample was analyzed twice, and the analysis was repeated three times.

BLT2 = biological target: T3, BLT2 (Homo sapiens, UniProt Q9NPC1); test: LTB4-induced chemotactic motility, Transwell, CHO-BLT2 cells; format: cell-based; conditions: LTB4 300 nM; for inhibition at 10 µM: read-out: chemotactic motility inhibited compared with LTB4 (DMSO+)
T3 construct: HA; expressed in transfected cells
T3 sequence (Q9NPC1 with tags, fused parts or gaps): T1 sequence (Q9NPC1 with tags, fused parts or gaps)
Description: as §1

[2] = test system: cancer cells (MDA-MB-231); test: Metastasis of breast cancer cells in nude mice; format: in vivo; conditions: MDA-MB-231 in nude mice, i.p.; LMT-696 and LY255283 2.5 mg/kg, U75302 0.25 mg/kg; 15 weeks
Description: An experiment for the metastasis of breast cancer cells according to the treatment of the compound of the present invention was approved by the Ethics Committee of Korea University, and all experimental animals used in this experiment were treated according to the approved guidelines of the Korea University Animal Care and Use Committee. Six-week-old female nude mice (Charles River, Wilmington, Mass.) were injected with cancer cells to confirm cancer cell metastasis. The breast cancer cells were pre-treated with the compound of the present invention (LMT-696, 10 μM), LY255283, U75302 and DMSO, and 24 hours later, harvested with trypsin-EDTA, resuspended in PBS, and then 2×10^6 of the breast cancer cells were intraperitoneally injected into mice anesthetized with zoletil (50 mg/kg). After five days, the compound of the present invention (LMT-696; 2.5 mg/kg), LY255283 (2.5 mg/kg), U75302 (0.25 mg/kg) and DMSO were injected intraperitoneally three times every five days. At 15 weeks after the injection of the breast cancer cells, the mice were dissected to observe the cancer cell metastasis.

[3] = test system: asthma-induced mice (OVA+LPS); test: OVA+LPS-induced severe asthma mice: AHR and cell influx; format: in vivo; conditions: 10 mg/kg, airway constrictor 50 mg/ml
Source text: Mast cells play a pivotal role in the initial reaction to asthma, and when an allergen enters the body from the outside through an airway, the mast cells are activated, thereby secreting various cytokines (interleukin-4 and interleukin-13). Due to the cytokines, the influx of inflammatory cells, the generation of mucus and the airway contraction occur. The inventors used 7-week-old (18 to 20 g) female BALB/c mice provided by Orient (Seoungnam, Korea) for the experiment to confirm the antiasthma effect, and then the asthma was induced in the mice. On the first and 14th days, 2.5 mg of an adjuvant, aluminum hydroxide gel (alum; Pierce, Rockford, Ill.) was included in […] of ovalbumin (OVA) to intraperitoneally sensitize female […] mice. On the 21st, 22nd and 23rd days of two initial sensitizations, 1% OVA was sprayed into the mice using an ultrasonic nebulizer. The compound of the present invention (LMT-696; 5 mg/kg), LY255283 (5 mg/kg, Cayman) or DMSO was intraperitoneally injected at the 1 hour before the 1% OVA spraying. On the 24th day of the initial sensitization, airway hyperresponsiveness (AHR) was detected, and on the 25th day, the mice were dissected to observe asthma phenotypes, for example, inflammatory cytokine IL-4 expression and the influx of inflammatory cells (neutrophils). In the case of lipopolysaccharide (LPS)-induced severe asthma animal models, on the 0, 1st, 2nd and 7th days, 75 μg of OVA and 1 mg of LPS were intranasally injected into Balb/c mice for sensitization. On the 14th, 15th, 21th and 22th days, 50 μg of OVA was injected into the nose for a challenge. The compound of the present invention (LMT-1013) (1, 3, 10 or 30 mg/kg), montelukast (10 mg/kg, DRS) or a control buffer (10% DMA, 5% Tween 80, 85% brine) were treated one hour before the challenge by injecting 50 μg of OVA into the nose. On the 23rd day of the initial sensitization, AHR was detected, and on the 24th day, the mice were dissected to observe a severe asthma phenotype, for example, the influx of the inflammatory cells (neutrophils). In addition, the AHR detection was performed after an airway constrictor, methacholine (6.25 to 50 mg/ml depending on conditions), was administered to the mice. The administration of the airway constrictor was performed by spraying through an inlet of the chamber using an ultrasonic nebulizer for 3 minutes. The AHR was analyzed using an enhanced pause as the indicator of the asthma phenomenon. Bronchoalveolar lavage fluid cell counts were quantified by counting cells under an optical microscope (magnification, 200×). In each analysis, 4 fields were subjected to counting, each sample was analyzed twice, and the analysis was repeated three times.

T2 sequence (Q15722 whole entry, species assumed): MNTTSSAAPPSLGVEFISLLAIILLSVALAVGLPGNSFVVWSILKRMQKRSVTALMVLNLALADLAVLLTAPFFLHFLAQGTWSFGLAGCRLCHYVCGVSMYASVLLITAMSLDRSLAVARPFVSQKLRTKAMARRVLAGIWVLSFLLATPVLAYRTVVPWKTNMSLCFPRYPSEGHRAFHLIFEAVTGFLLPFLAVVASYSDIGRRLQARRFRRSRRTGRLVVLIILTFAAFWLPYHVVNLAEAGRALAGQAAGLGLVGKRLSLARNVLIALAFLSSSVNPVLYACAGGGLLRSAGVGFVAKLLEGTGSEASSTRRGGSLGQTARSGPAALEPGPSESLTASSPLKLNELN

With CCCCC(=O)N(CC#Cc1ccc(C(=O)N2CCN(C)CC2)cc1)c1ccccc1 [LMT-692, N-(3-(4-(4-methylpiperazine-1-carbonyl)phenyl)prop-2-ynyl)-N-phenylpentanamide] the “cell growth compared with the control DMSO” value [1] was 88.0%, the “inhibitory effect on chemotactic motility” value (BLT1) was “did not exhibit the inhibitory effect” and the inhibition at 10 µM (BLT2; 10 μM pre-treatment) was 66%. The IC50 (BLT2; serum-free, read-out: IC50 of chemotactic motility inhibition) was 7.57 µM.
For CCCCC(=O)N(CC#Cc1ccc(C(=O)N2CCNCC2)cc1)c1ccccc1 [LMT-694, N-phenyl-N-(3-(4-(piperazine-1-carbonyl)phenyl)prop-2-ynyl)pentanamide], the “cell growth compared with the control DMSO” value [1] was 16.7%, the “inhibitory effect on chemotactic motility” value (BLT1) was “did not exhibit the inhibitory effect” and the inhibition at 10 µM (BLT2; 10 μM pre-treatment) was 90%.
For CCCCC(=O)N(CC#Cc1cccc(C(=O)N2CCNCC2)c1)c1ccccc1 [LMT-837, N-phenyl-N-(3-(3-(piperazine-1-carbonyl)phenyl)prop-2-ynyl)pentaneamide], the inhibition at 10 µM [1] was 65%.
CCCCC(=O)N(CC#Cc1ccc(C(=O)N2CCN(C(C)C)CC2)cc1)c1ccc(F)cc1 [LMT-841, N-(4-fluorophenyl)-N-(3-(4-(4-isopropylpiperazine-1-carbonyl)phenyl)prop-2-ynyl)pentaneamide] gave an inhibition at 10 µM [1] of 60%.
Molecule CCCCC(=O)N(CC#Cc1cccc(C(=O)N2CCN(C(C)C)CC2)c1)c1ccccc1 [LMT-842, N-(3-(3-(4-isopropylpiperazine-1-carbonyl)phenyl)prop-2-ynyl)-N-phenylpentaneamide] has an inhibition at 10 µM [1] of 70%.
With CCCCC(=O)N(CC#Cc1ccc(C(=O)N(CC)CC)cc1)c1ccccc1 [LMT-883, N,N-diethyl-4-(3-(N-phenylpentaneamido)prop-1-ynyl)benzamide] the inhibition at 10 µM [1] was 99%.
Molecule CCCCC(=O)N(CC#Cc1ccc(C(=O)N2CCN(C(C)C)CC2)cc1)c1cccc(F)c1 [LMT-886, N-(3-fluorophenyl)-N-(3-(4-(4-isopropylpiperazine-1-carbonyl)phenyl)prop-2-ynyl)pentaneamide] has an inhibition at 10 µM [1] of 99%.
CCCCC(=O)N(CC#Cc1ccc(C(=O)NCCN(C)C)cc1)c1ccccc1 [LMT-1016, N-(2-(dimethylamino)ethyl)-4-(3-(N-phenylpentaneamido)prop-1-yn-1-yl)benzamide] showed an inhibition at 10 µM [1] of 99%.
Molecule CCCCC(=O)N(CC#Cc1ccc(C(=O)NC(C)C(=O)OC)cc1)c1ccccc1 (stereo not drawn) [LMT-1018, methyl 2-(4-(3-(N-phenylpentaneamido)prop-1-yn-1-yl)benzamido)propanoate] has an inhibition at 10 µM [1] of 71.6%.
Molecule CCCCC(=O)N(CC#Cc1ccc(C(=O)NC(C)C(=O)O)cc1)c1ccccc1 (stereo not drawn) [LMT-1019, 2-(4-(3-(N-phenylpentaneamido)prop-1-yn-1-yl)benzamido)propanoic acid] has an inhibition at 10 µM [1] of 99%.
With CCc1cc(C(C)=O)c(O)cc1OCCCCCC(C)(C)c1nnn[nH]1 [LY255283, 1-[5-ethyl-2-hydroxy-4-[[6-methyl-6-(1H-tetrazol-5-yl)heptyl]oxy]phenyl]-ethanone, reference compound] the “cell growth compared with the control DMSO” value [1] was “approximately 90%”, the “metastasis of the cancer cells inhibited as compared with the control” value [2] was 36% and the “chemotactic motility as compared with cells treated with the ligand LTB4” value (BLT2; 10 μM pre-treatment) was 90%.
With CCCCC/C=C\C[C@@H](O)/C=C/c1cccc(C[C@@H](O)CCCCO)n1 [U75302, reference compound] the “metastasis of the cancer cells inhibited as compared with the control” value [2] was “not inhibited” and the “chemotactic motility as compared with cells treated with the ligand LTB4” value (BLT1) was 90%.
Molecule CC(C)(O)c1ccccc1CC[C@@H](SCC1(CC(=O)O)CC1)c1cccc(/C=C/c2ccc3ccc(Cl)cc3n2)c1 [montelukast, reference compound] has an AHR reduced [3] of 64%.
